One series concerns MT-4 cells. The series is described as follows: Cytotoxicity assay in MT-4 cells. Particulars: uninfected MT-4 cells, 5 days incubation, Cell Titer Glo; read-out: MT4 CC50. The series is classed as cell-based. In short, it runs like this: (§1)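 Viability read by Cell Titer Glo luminescence after 5 days at 37 °C. MT-4 cells, not infected, in complete RPMI (10% FBS), received compound dilution series. Base cytotoxicity set with […] puromycin.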
A general note: Cellular ATP, detected with luciferase, serves as a proxy for viable cell number.

The next series deals with HIV-1 (IIIB). The series is described as follows: Antiviral assay in MT-4 cells. Type of series: cell-based. Particulars: HIV-1 IIIB in MT-4 cells, 5 days incubation, Cell Titer Glo, read-out: MT4 EC50. In short, it runs like this: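 Read-out: CellTiter-Glo luminescence after 5 days at 37 °C, reflecting survival of MT-4 cells infected with HIV-1 IIIB (1:250 fresh stock dilution) versus mock-infected. Compounds serially diluted into RPMI with 10% FBS; AZT at 5 μM served as positive control.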

Series [1] is described as follows: Cytotoxicity assay in MT-4 cells. Particulars: human; uninfected MT-4 cells, 5 days incubation, Cell Titer Glo; read-out: MT4 CC50. The series is classed as cell-based. In short, it runs like this: as §1
A further series can be described thus: physchem. The series is classed as physicochemical. Particulars: 23 °C, thermodynamic from solid; FaSSIF, 24 h, ambient temperature, 5 mg/mL dose concentration. The method, then:
Approximately 7 mg of each test compound as a dry powder was placed in a vial. Aliquots were weighed out for each assay media at 2 hour and 24 hour time points, to be analyzed. The appropriate buffer (FaSSIF or PBS) was added to each vial such that the final dose concentration of 5 mg/mL was achieved. […] The plate was sealed with a pierceable heat seal and analyzed by HPLC-UV.
A system QC (0.01 mg/mL Caffeine in DMSO) was injected every 12-15 injections. […] Results are reported using data obtained at 280 nm. The resulting peak areas were plotted against the known concentrations from the calibration and the filtrates are quantified with respect to the linear regression using Agilent OpenLab Intelligent Reporting Software. The results are reported electronically in mg/mL.

The structures appear in SMILES notation. Values after ≈ are worked out from the molar mass of the structure shown. Like-named read-outs stand apart in the source and are kept apart here.

Consider `COC(=O)OCOc1c2n(cc(C(=O)NCc3ccc(F)cc3F)c1=O)[C@@H]1CN(C2=O)[C@@H](C)CC[C@]12CC(OC)=NO2` [Example 11, (((3′S,5S,7′R)-10′-((2,4-difluorobenzyl)carbamoyl)-3-methoxy-3′-methyl-1′,11′-dioxo-1′,4′,5′,11′-tetrahydro-3′H,4H,7′H-spiro[isoxazole-5,6′-[2,7]methanopyrido[1,2-a][1,4]diazonin]-12-yl)oxy)methyl methyl carbonate], for which the CC50 in the series on MT-4 cells stood at 36.8 µM. Moreover, in the series with HIV-1 (IIIB), the EC50 came to 0.00834 µM.
Turning to `CC1=NO[C@@]2(CC[C@H](C)N3C[C@H]2n2cc(C(=O)NCc4ccc(F)cc4F)c(=O)c(OCOC(=O)OC(C)C)c2C3=O)C1` [Example 24, (((3′S,5S,7′R)-10′-((2,4-difluorobenzyl)carbamoyl)-3,3′-dimethyl-1′,11′-dioxo-1′,4′,5′,11′-tetrahydro-3′H,4H,7′H-spiro[isoxazole-5,6′-[2,7]methanopyrido[1,2-a][1,4]diazonin]-12′-yl)oxy)methyl isopropyl carbonate], the CC50 at 5 days in series [1] was 31.7 µM. For the same compound, the EC50 with HIV-1 (IIIB) (Human immunodeficiency virus 1, MT4, 120 h) is 0.00517 µM. This compound also gave a solubility (thermodynamic) at 24 h in “physchem” of 8 µg/mL (≈ 13.3 µM).

What is called CC50 is the concentration that lowers cell viability or growth by half. What is called EC50 is the concentration giving half of the maximal effect. By solubility (thermodynamic) is commonly meant solubility found after equilibrating the solid with the medium.

Values taken from US20250122219A1 (priority 2023, published 2025).
